This note sets out measurements from ChEMBL document CHEMBL4706551, “Rational design of new multitarget histamine H receptor ligands as potential candidates for treatment of Alzheimer's disease” (Eur J Med Chem, 2020).

Some results are limits rather than exact numbers.

In general, IC50 refers to the concentration needed to halve the response being measured. Higher therefore signals a need for much substance. By Ki is commonly meant a dissociation constant, usually derived from enzyme kinetics or from competition with a known ligand. A low value points to higher affinity. As a reminder, the inhibition is the share of the control response that was lost under treatment.

Chain of Cholinesterase (P81908 whole entry): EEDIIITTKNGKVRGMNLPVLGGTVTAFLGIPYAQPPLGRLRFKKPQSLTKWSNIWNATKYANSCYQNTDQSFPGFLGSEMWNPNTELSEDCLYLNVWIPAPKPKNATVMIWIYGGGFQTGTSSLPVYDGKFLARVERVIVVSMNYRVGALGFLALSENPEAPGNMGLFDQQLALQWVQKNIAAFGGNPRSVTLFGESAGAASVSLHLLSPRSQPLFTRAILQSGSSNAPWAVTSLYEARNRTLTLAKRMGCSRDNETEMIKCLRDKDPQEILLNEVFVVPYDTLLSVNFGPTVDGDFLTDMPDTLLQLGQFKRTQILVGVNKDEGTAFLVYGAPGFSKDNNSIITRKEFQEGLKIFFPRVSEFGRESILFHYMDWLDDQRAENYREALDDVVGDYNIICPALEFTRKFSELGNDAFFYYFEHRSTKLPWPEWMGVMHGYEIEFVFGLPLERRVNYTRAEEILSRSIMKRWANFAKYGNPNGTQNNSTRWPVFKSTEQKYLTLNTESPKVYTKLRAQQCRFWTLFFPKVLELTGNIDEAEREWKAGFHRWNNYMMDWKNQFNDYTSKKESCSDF

In the first data set the target is Acetylcholinesterase (Electrophorus electricus, UniProt O42275).
Chain of Acetylcholinesterase (O42275 whole entry): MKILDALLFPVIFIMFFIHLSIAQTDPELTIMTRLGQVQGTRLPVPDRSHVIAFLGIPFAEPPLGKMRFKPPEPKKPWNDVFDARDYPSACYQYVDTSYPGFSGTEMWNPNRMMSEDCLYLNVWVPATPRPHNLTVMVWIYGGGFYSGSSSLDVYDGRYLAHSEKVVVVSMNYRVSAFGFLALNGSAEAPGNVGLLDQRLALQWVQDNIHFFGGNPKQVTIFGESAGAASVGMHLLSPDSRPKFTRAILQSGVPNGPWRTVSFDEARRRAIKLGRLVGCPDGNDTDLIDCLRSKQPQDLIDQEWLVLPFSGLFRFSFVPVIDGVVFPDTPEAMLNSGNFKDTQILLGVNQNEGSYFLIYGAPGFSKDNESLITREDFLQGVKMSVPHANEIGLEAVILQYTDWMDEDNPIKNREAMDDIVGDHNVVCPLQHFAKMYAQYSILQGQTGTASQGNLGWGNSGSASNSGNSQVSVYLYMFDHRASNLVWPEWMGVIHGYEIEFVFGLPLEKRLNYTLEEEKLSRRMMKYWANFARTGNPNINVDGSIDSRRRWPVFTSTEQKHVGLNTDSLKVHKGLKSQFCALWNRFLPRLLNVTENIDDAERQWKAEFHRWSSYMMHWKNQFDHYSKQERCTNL
Test: not given
Settings: not given
Compound `O=c1c2ccc(Cl)cc2oc2ccc(OCCCCCN3CCCCCC3)cc12` showed an IC50 of 314 nM.

`CC1CCN(CCCCCOc2ccc3oc4ccccc4c(=O)c3c2)CC1` showed an IC50 of 697 nM.

`CC1CCCN(CCCCCCOc2ccc3oc4cc(Cl)ccc4c(=O)c3c2)C1` (configuration not stated) came in with an IC50 of 384 nM.

Take `O=c1c2ccccc2oc2ccc(OCCCCCN3CCCCC3)cc12`: the IC50 amounted to 622 nM.

In turn, `O=c1c2ccc(Cl)cc2oc2ccc(OCCCCCCN3CCCCCC3)cc12` had an IC50 of 235 nM.

In the case of `CC1CCN(CCCCCOc2ccc3oc4cc(Cl)ccc4c(=O)c3c2)CC1`, the midpoint of inhibition, the IC50, lay at 421 nM.

`O=c1c2ccccc2oc2ccc(OCCCCCCN3CCCCCC3)cc12` yielded an IC50 of 308 nM.

For the compound `CC1CCN(CCCCCOc2ccc3oc4ccc(Cl)cc4c(=O)c3c2)CC1`, half-maximal inhibition (IC50) required 386 nM.

`O=c1c2cc(Cl)ccc2oc2ccc(OCCCCCCN3CCCCC3)cc12` came in with an IC50 of 620 nM.

For `O=c1c2cc(Cl)ccc2oc2ccc(OCCCCCCN3CCCCCC3)cc12`, the midpoint of inhibition, the IC50, lay at 270 nM.

A further data set has as its target Cholinesterase (Equus caballus, UniProt P81908).
Test: not given
Settings: not given
Consider `O=c1c2ccc(Cl)cc2oc2ccc(OCCCCCN3CCCCCC3)cc12`, for which the IC50 was found to be 1280 nM.

The compound `CC1CCN(CCCCCOc2ccc3oc4ccccc4c(=O)c3c2)CC1` showed an IC50 of 1090 nM.

Compound `CC1CCCN(CCCCCCOc2ccc3oc4cc(Cl)ccc4c(=O)c3c2)C1` (configuration not stated) gave an IC50 of 2040 nM.

As to `O=c1c2ccccc2oc2ccc(OCCCCCN3CCCCC3)cc12`, the half-inhibitory concentration (IC50) was found to be 2540 nM.

In turn, `O=c1c2ccc(Cl)cc2oc2ccc(OCCCCCCN3CCCCCC3)cc12` registered an IC50 of 1240 nM.

The compound `CC1CCN(CCCCCOc2ccc3oc4cc(Cl)ccc4c(=O)c3c2)CC1` registered an IC50 of 1610 nM.

For `O=c1c2ccccc2oc2ccc(OCCCCCCN3CCCCCC3)cc12`, the half-inhibitory concentration (IC50) came to 605 nM.

As to `CC1CCN(CCCCCOc2ccc3oc4ccc(Cl)cc4c(=O)c3c2)CC1`, half-maximal inhibition (IC50) required 1100 nM.

Turning to `O=c1c2cc(Cl)ccc2oc2ccc(OCCCCCCN3CCCCC3)cc12`, the IC50 was determined as 954 nM.

Turning to `O=c1c2cc(Cl)ccc2oc2ccc(OCCCCCCN3CCCCCC3)cc12`, the IC50 is 545 nM.

The next data set deals with Histamine H3 receptor (Homo sapiens, UniProt Q9Y5N1). As to the kind of experiment: biochemical.
Chain of Histamine H3 receptor (Q9Y5N1 whole entry): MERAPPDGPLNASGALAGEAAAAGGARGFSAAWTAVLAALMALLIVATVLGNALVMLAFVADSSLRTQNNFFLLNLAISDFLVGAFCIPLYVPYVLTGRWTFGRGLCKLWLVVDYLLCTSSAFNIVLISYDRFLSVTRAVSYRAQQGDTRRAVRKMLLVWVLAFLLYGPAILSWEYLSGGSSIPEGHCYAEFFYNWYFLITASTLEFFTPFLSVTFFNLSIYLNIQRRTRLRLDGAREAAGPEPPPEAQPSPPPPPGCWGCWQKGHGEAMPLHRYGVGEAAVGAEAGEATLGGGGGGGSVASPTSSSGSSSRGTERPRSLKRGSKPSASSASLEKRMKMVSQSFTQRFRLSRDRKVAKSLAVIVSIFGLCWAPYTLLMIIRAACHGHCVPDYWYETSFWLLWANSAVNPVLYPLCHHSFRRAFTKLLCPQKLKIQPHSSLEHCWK
Settings: not given
`O=c1c2ccc(Cl)cc2oc2ccc(OCCCCCN3CCCCCC3)cc12`: the affinity corresponds to a Ki of 86 nM.

`CC1CCN(CCCCCOc2ccc3oc4ccccc4c(=O)c3c2)CC1` gave a Ki of 110 nM.

As for `CC1CCCN(CCCCCCOc2ccc3oc4cc(Cl)ccc4c(=O)c3c2)C1` (configuration not stated), the affinity, expressed as Ki, was 1100 nM.

For `O=c1c2ccccc2oc2ccc(OCCCCCN3CCCCC3)cc12`, the affinity, expressed as Ki, was 172 nM.

With `O=c1c2ccc(Cl)cc2oc2ccc(OCCCCCCN3CCCCCC3)cc12`, the Ki came to 602 nM.

For the compound `CC1CCN(CCCCCOc2ccc3oc4cc(Cl)ccc4c(=O)c3c2)CC1`, affinity was put at a Ki of 448 nM.

In the case of `O=c1c2ccccc2oc2ccc(OCCCCCCN3CCCCCC3)cc12`, the Ki was found to be 496 nM.

`CC1CCN(CCCCCOc2ccc3oc4ccc(Cl)cc4c(=O)c3c2)CC1` had a Ki of 140 nM.

As to `O=c1c2cc(Cl)ccc2oc2ccc(OCCCCCCN3CCCCC3)cc12`, the Ki was 282 nM.

Consider `O=c1c2cc(Cl)ccc2oc2ccc(OCCCCCCN3CCCCCC3)cc12`, for which the Ki amounted to 238 nM.

A further data set addresses T1, MAO-A (Homo sapiens, UniProt P21397).
T1 sequence (P21397 whole entry): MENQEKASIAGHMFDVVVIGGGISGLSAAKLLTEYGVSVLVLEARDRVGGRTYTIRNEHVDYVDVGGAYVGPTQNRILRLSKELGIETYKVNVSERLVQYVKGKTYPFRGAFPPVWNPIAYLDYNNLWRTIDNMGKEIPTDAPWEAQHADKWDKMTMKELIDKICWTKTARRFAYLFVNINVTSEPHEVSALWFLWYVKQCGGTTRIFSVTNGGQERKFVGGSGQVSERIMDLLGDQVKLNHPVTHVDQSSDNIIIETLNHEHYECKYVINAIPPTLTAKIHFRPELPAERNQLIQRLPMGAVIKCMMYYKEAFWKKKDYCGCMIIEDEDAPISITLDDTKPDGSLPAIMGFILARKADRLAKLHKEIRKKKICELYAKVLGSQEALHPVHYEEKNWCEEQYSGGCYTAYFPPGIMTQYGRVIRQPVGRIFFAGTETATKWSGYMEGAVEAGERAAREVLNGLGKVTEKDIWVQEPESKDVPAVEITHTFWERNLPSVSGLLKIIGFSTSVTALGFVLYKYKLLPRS
The experiment in a line: in vitro. The settings on record: probe p-tyramine.
Description: Inhibition of recombinant human MAO-A expressed in baculovirus infected BTI cells at 1 uM using p-tyramine as substrate by fluorometric assay relative to control
`Clc1ccc(CCCOCCCN2CCCCC2)cc1` [PITOLISANT]: 1 µM produced 9% inhibition.

`C#CCN(C)CCCOc1ccc(Cl)cc1Cl` [CLORGILINE] displayed an inhibition at 1 µM of 1.8%.

`O=c1c2ccc(Cl)cc2oc2ccc(OCCCCCN3CCCCCC3)cc12` displayed an inhibition at 1 µM of 2%.

`CC1CCN(CCCCCOc2ccc3oc4ccccc4c(=O)c3c2)CC1` had an inhibition at 1 µM of 1%.

`CC1CCCN(CCCCCCOc2ccc3oc4cc(Cl)ccc4c(=O)c3c2)C1` (configuration not stated) gave an inhibition at 1 µM of 42%.

In turn, `O=c1c2ccccc2oc2ccc(OCCCCCN3CCCCC3)cc12` displayed an inhibition at 1 µM of 6%.

`O=c1c2ccc(Cl)cc2oc2ccc(OCCCCCCN3CCCCCC3)cc12` had an inhibition at 1 µM of 5%.

With `CC1CCN(CCCCCOc2ccc3oc4cc(Cl)ccc4c(=O)c3c2)CC1`, the inhibition at 1 µM is 22%.

Consider `O=c1c2ccccc2oc2ccc(OCCCCCCN3CCCCCC3)cc12`, for which 1 µM produced 3% inhibition.

In turn, `CC1CCN(CCCCCOc2ccc3oc4ccc(Cl)cc4c(=O)c3c2)CC1` yielded an inhibition at 1 µM of 5%.

In the case of `O=c1c2cc(Cl)ccc2oc2ccc(OCCCCCCN3CCCCC3)cc12`, 1 µM produced 8% inhibition.

Compound `O=c1c2cc(Cl)ccc2oc2ccc(OCCCCCCN3CCCCCC3)cc12` gave an inhibition at 1 µM of 23%.

Another data set addresses T2, Amine oxidase [flavin-containing] B (Homo sapiens, UniProt P27338).
T2 sequence (P27338 whole entry): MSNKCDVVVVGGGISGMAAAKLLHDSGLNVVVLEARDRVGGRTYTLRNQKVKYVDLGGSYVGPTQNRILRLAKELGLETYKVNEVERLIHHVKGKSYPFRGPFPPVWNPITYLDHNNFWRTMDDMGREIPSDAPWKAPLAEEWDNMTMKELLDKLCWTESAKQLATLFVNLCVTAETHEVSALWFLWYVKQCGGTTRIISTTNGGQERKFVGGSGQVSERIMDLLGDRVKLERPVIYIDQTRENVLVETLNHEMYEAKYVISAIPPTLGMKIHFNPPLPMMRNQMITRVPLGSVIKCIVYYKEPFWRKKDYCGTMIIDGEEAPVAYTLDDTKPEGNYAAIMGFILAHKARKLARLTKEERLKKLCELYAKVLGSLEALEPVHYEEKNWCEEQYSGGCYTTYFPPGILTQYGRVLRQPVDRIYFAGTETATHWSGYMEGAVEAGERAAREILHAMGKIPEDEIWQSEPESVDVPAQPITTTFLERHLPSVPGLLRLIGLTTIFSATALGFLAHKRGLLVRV
The experiment in a line: biochemical.
Settings: not given
Format: cell-based, BTI.
Turning to `O=c1c2ccc(Cl)cc2oc2ccc(OCCCCCN3CCCCCC3)cc12`, the IC50 stood at 2110 nM.

`CC1CCN(CCCCCOc2ccc3oc4ccccc4c(=O)c3c2)CC1` came in with an IC50 of 1860 nM.

Compound `CC1CCCN(CCCCCCOc2ccc3oc4cc(Cl)ccc4c(=O)c3c2)C1` (configuration not stated) gave an IC50 of 1830 nM.

For `O=c1c2ccccc2oc2ccc(OCCCCCN3CCCCC3)cc12`, the IC50 came to 1500 nM.

With `O=c1c2ccc(Cl)cc2oc2ccc(OCCCCCCN3CCCCCC3)cc12`, the IC50 is 975 nM.

In turn, `CC1CCN(CCCCCOc2ccc3oc4cc(Cl)ccc4c(=O)c3c2)CC1` returned an IC50 of 1540 nM.

The compound `O=c1c2ccccc2oc2ccc(OCCCCCCN3CCCCCC3)cc12` yielded an IC50 of 385 nM.

`CC1CCN(CCCCCOc2ccc3oc4ccc(Cl)cc4c(=O)c3c2)CC1` came in with an IC50 of 673 nM.

For `O=c1c2cc(Cl)ccc2oc2ccc(OCCCCCCN3CCCCC3)cc12`, the IC50 came out at 1820 nM.

Compound `O=c1c2cc(Cl)ccc2oc2ccc(OCCCCCCN3CCCCCC3)cc12` returned an IC50 of 1390 nM.

The next data set deals with T1, MAO-A. The experiment in a line: Inhibition of recombinant human MAO-A expressed in baculovirus infected BTI cells at 10 uM using p-tyramine as substrate by fluorometric assay relative to control. Particulars: probe p-tyramine.
For `O=c1c2ccc(Cl)cc2oc2ccc(OCCCCCN3CCCCCC3)cc12`, the inhibition at 10 µM is less than 50%.

As to `CC1CCN(CCCCCOc2ccc3oc4ccccc4c(=O)c3c2)CC1`, the inhibition at 10 µM is less than 50%.

Turning to `CC1CCCN(CCCCCCOc2ccc3oc4cc(Cl)ccc4c(=O)c3c2)C1` (configuration not stated), the inhibition at 10 µM is less than 50%.

For the compound `O=c1c2ccccc2oc2ccc(OCCCCCN3CCCCC3)cc12`, the inhibition at 10 µM was less than 50%.

Consider `O=c1c2ccc(Cl)cc2oc2ccc(OCCCCCCN3CCCCCC3)cc12`, for which the inhibition at 10 µM was less than 50%.

Turning to `CC1CCN(CCCCCOc2ccc3oc4cc(Cl)ccc4c(=O)c3c2)CC1`, the inhibition at 10 µM is less than 50%.

For `O=c1c2ccccc2oc2ccc(OCCCCCCN3CCCCCC3)cc12`, the inhibition at 10 µM is less than 50%.

Regarding `CC1CCN(CCCCCOc2ccc3oc4ccc(Cl)cc4c(=O)c3c2)CC1`, the inhibition at 10 µM is less than 50%.

For `O=c1c2cc(Cl)ccc2oc2ccc(OCCCCCCN3CCCCC3)cc12`, the inhibition at 10 µM was less than 50%.

Consider `O=c1c2cc(Cl)ccc2oc2ccc(OCCCCCCN3CCCCCC3)cc12`, for which the inhibition at 10 µM is less than 50%.
